System: leukotriene D4 -induced bronchoconstriction
Assay: Inhibition of bronchoconstriction in guinea pigs (leukotriene D4-induced, modified Konzett-Rossler method)
Assay type: in vivo, Male Hartley guinea pig
Conditions: p.o., 2 hours before leukotriene D4 challenge (3 μg/kg, i.v.)
Procedure: Inhibition of bronchoconstriction in guinea pigs
Male Hartley guinea pig weighing about 450 g was anesthetized with sodium pentobarbital (30 mg/kg,i.p.), and the changes in transpulmonary pressure was measured by modifying the method of Konzett-Rossler (J. Harvey, et al., J. Pharmacol. Method. 9, 147-155, 1983) under an artificial ventilation. Bronchoconstrictor response was induced by bolus injection of leukotriene D4 (3 μg/kg,i.v.) from jugular vein. Animal was treated with indomethacin (10 mg/kg,i.v.) and propranolol (1 mg/kg,i.v.) before leukotriene D4 challenge. Test compounds suspended in 5% Gum Arabic solution were administered orally 2 hours before leukotriene D4 challenge.

SMILES	Inhibition (%) (12.5 mg/kg)	Inhibition (%) (50 mg/kg)	Inhibition (%) (1.5 mg/kg)	Inhibition (%) (6.25 mg/kg)
CCCc1c(OCCOc2ccc(C(C)=O)c(OCCCC(=O)O)c2CCC)ccc(C(C)=O)c1O [Example 6, 4-[6-acetyl-3-[2-(4-acetyl-3-hydroxy-2-propylphenoxy)-ethoxy]-2-propylphenoxy]butanoic acid]	28.6%	86.6%		
CCCc1c(OCCCOc2ccc(C(C)=O)c(OCCCC(=O)O)c2CCC)ccc(C(C)=O)c1O [Example 5, 4-[6-Acetyl-3-[3-(4-acetyl-3-hydroxy-2-propylphenoxy)propoxy]-2-propylphenoxy]butanoic acid]	59.0%	82.7%	27.4%	41.7%
CCCc1c(OCCCCCOc2c(C(C)=O)ccc(OCC(=O)O)c2CCC)ccc(C(C)=O)c1O [Ref. 2, [4Acetyl-3-[5-(4-acetyl-3-hydroxy-2-propylphenoxy)-pentyloxy]-2-propylpheoxy]acetic acid, reference compound]		16.9%		
CCCc1c(OCCCOc2ccc(C(C)=O)c(OCC(=O)O)c2CCC)ccc(C(C)=O)c1O [Ref. 1, [6-acetyl-3-[3-(4-acetyl3-hydroxy-2-propylphenoxy)propoxy]-2-propylphenoxy]acetic acid, reference compound]	-12.1%	56.1%		
CCCc1c(OCCCCOc2ccc(C(C)=O)c(OCCCC(=O)O)c2CCC)ccc(C(C)=O)c1O [Example 8, 4-[6-acetyl-3-[4-(4-acetyl-3-hydroxy-2-propylphenoxy)butoxy]-2-propylphenoxy]butanoic acid]		83.1%		
CCCc1c(OCCCOc2ccc(C(C)=O)c(OCCCCC(=O)O)c2CCC)ccc(C(C)=O)c1O [Example 7, 5-[6-acetyl-3-[3(4-acetyl-3-hydroxy-2-propylphenoxy)propoxy]-2-propylphenoxy]pentanoic acid]	45.2%	94.8%		

Source: patent US5023364A, “Phenoxyalkylcarboxylic acid derivatives and process for their preparation” (Kyorin Pharmaceutical Co., Ltd., priority 1987, dated 1991)
